Laboratory results reported in patent EP1908513A1, “Method for preparing and using chemical collections” (priority 2006, dated 2008).
Values after ≈ are worked out from the molar mass of the structure shown.

Experiments:
[1] = decimal logarithm of the molar aqueous solubility; cited from earlier work
[2] = Solubilization in water or 30% PEG-8000/water, freeze-drying and reconstitution; concentration by HPLC (Example 1); settings: for PEG solutions, freeze dried and reconstituted Test 1 / PEG solutions, freeze dried and reconstituted Test 2: 30% PEG-8000, reconstituted with water; for PEG solutions, freeze dried and reconstituted Test 1 / PEG solutions, freeze dried and reconstituted Test 2 / CPEG / Cw: target 200 µM; for CPEG: 30% PEG-8000 / water, 50-fold dilution of 10 mM DMSO stock; for CPEG / Cw: filtered 0.45 µm; for Cw: aqueous solution, 50-fold dilution of 10 mM DMSO solution; for PEG solutions, reconstituted and diluted 1:10 Test 1 / PEG solutions, reconstituted and diluted 1:10 Test 2: diluted 1:10 with water, target 20 µM; for PEG solutions, reconstituted and diluted 1:10 Test 1: 3% PEG-8000, Test 1; for PEG solutions, reconstituted and diluted 1:10 Test 2: 3% PEG-8000, Test 2
Description: Materials and methods. […] The following compounds were obtained from Fluka - Riedel deHaën: phenylacetic acid, p-toluenesulphonamide, carbazol (Vetranal analytical standard), Polyethylene glycol 8000. Stock solutions were prepared in dimethylsulfoxide (Sigma-Aldrich, ACS spectrophotometric grade) at 10 mM concentration by weighing an appropriate amount of each compound and adding the computed DMSO volume with a calibrated variable volume pipet (Eppendorf). A solution of PEG-8000 (30%, w/w) in water in a 50 mL centrifuge tube was prepared by weighing 15.0 g of PEG-8000 and adding water up to 50.0 g.
Solutions were analysed using an Agilent 1100 chromatograph with the following HPLC method: • Column: Waters X-terra 4.6x50 mm, 3.5 µm • Mobile phase A: water/acetonitrile (97/3 by volume) containing 0.1% trifluoroacetic acid • Mobile phase B: acetonitrile containing 0.1% trifluoroacetic acid • Flow = 1 mL/min, injection = 10 µL, detection wavelength 220 nm (8 nm bandwidth) with reference at 400 nm (40 nm bandwidth). • Gradient 1: from 100% A to 60% A in 6 min, down to 40% A in 1 min, followed by 3 min re-equilibration at 100% A. • Gradient 2: from 70% A to 30% A in 6 min, 1 min isocratic elution at 30% A, followed by 3 min re-equilibration at 70% A.
The following solutions were prepared by 50-fold dilution of the DMSO stock solutions: • Target concentration: 200 µM in water • Target concentration: 200 µM in 30% PEG-8000 / water
After equilibration (1 day at room temperature), all solutions were filtered through 0.45 µm cellulose filters (ProFill, 25 mm syringe filters, Alltech). Aliquots were placed in HPLC vials and submitted to analysis. Two 1 mL aliquots of each 30% PEG solution were placed into 14x100 mm pre-weighed test tubes. These tubes were weighed, and placed in liquid nitrogen to freeze the solution, and finally submitted to freeze-drying in a Lio-5P apparatus (5Pascal, Trezzano sul Naviglio, Italy). After one day, the tubes were weighed and water was added with a micropipette in order to match the original solution weight. A fraction of these solutions was diluted 1:10 with water (target concentration: 20 µM).

[3] = Solubility in various aqueous PEG media, by HPLC (Example 2); settings: aqueous with cosolvent or surfactant or cyclodextrin, kinetic from dmso stock, Average solubility, N=3
Description: Materials and methods. […] The following compounds were obtained from Fluka - Riedel deHaën: carbazol (Vetranal analytical standard), Polyethylene glycol 8000, Polyethylene glycol 20000, Polyethylene glycol 400. […] Solutions of PEG-8000 and PEG-20000 in water (30%, w/w) were prepared in 50 mL centrifuge tubes by weighing 15.0 g of the corresponding PEG and adding water up to 50.0 g. A solution containing PEG-8000 (10%, w/w) and PEG-400 (20%, w/w) was similarly prepared by mixing 5 g PEG-8000 with […], and adding water up to 50 g.
Results. […] Starting from DMSO stock solutions, dilute solutions with a nominal concentration of 200 µM were prepared by 50-fold dilution with one of three different aqueous PEG medium. After equilibration for 1 day at room temperature, these solutions were filtered through 0.45 µm cellulose filters (ProFill, 25 mm syringe filters, Alltech). Aliquots were placed in HPLC vials and submitted to analysis.

Compound | LogSw [1] | PEG solutions, freeze dried and reconstituted Test 1 [2] | PEG solutions, freeze dried and reconstituted Test 2 [2] | CPEG [2] | Cw [2] | PEG solutions, reconstituted and diluted 1:10 Test 1 [2] | PEG solutions, reconstituted and diluted 1:10 Test 2 [2] | solubility at 1 day ([3]; 20% PEG-400 + 10% PEG-8000, nominal 200 µM) | solubility at 1 day ([3]; 30% PEG-8000, nominal 200 µM) | solubility at 1 day ([3]; 30% PEG-20000, nominal 200 µM) | measured concentration after ten-fold dilution of the reconstituted PEG lyophilized samples ([2]; 3% PEG-8000, range over both tests and both compounds)
O=C(O)Cc1ccccc1 [Compound 1, Phenylacetic acid] | -0.89 | 181 µM | 187 µM | 198 µM | 200 µM | 17.7 µM | 17.8 µM | – | – | – | –
Cc1ccc(S(N)(=O)=O)cc1 [Compound 2, p-Toluenesulphonamide] | -1.74 | – | – | – | – | – | – | – | – | – | –
CCOC(=O)c1ccc(O)cc1 [Compound 3, Ethyl-p-hydroxybenzoate] | -2.35 | – | – | – | – | – | – | – | – | – | –
CC(=O)CC(c1ccccc1)c1c(O)c2ccccc2oc1=O (stereo not drawn) [Compound 6, Warfarin] | -4.26 | 199 µM | 199 µM | 198 µM | 155 µM | 20.2 µM | 20.4 µM | – | – | – | –
c1ccc2c(c1)[nH]c1ccccc12 [Compound 8, Carbazol] | -5.27 | 195 µM | 195 µM | 196 µM | 8.6 µM | 19.0 µM | 19.2 µM | 187 µM | 194 µM (≈ 32.4 µg/mL) | 188 µM (≈ 31.4 µg/mL) | 19.0 to 19.4 µM
